# According to patent US11541057B2, “Thienopyrimidinone NMDA receptor modulators and uses thereof” (Cadent Therapeutics, Inc., priority 2015, dated 2023):
# Target: T1, NMDA receptor GRIN1/GRIN2B (NR2B) expressed in HEK293 cells (Homo sapiens, UniProt Q13224)
# T1 construct: host or cells: HEK293
# Test: Reversal of Ro 25-6981-mediated suppression of the Ca2+ response (fluo-8 fluorescence, FDSS) in HEK293 cells expressing GRIN1 and GRIN2B
# Format: cell-based
# Conditions: % reversal=100*(R−Rneg)/(Rpos−Rneg) of Ro 25-6981 suppression of co-agonist (glutamate/glycine) Ca2+ response, 10 min pre-incubation, compound concentration not given
# Method: HEK293 cells with constructs conferring stable expression of the GRIN1 gene and tetracycline-inducible expression of the GRIN2B gene (Chantest, Cleveland, Ohio) are grown to ˜75% confluence in tissue culture flasks at 37° C., 5% CO2. NR2B expression is induced by overnight incubation with 0.3-0.4 μg/ml tetracycline in the presence of 2.5 mM ARL-15896 at 37° C., followed by moving to 30° C. for 3-5 hours. Cells are next harvested using TripleExpress™ (Life Technologies, Carlsbad, Calif.) according to the manufacturer's instructions, first removing culture medium, rinsing with Dulbecco's phosphate buffered saline (Ca^2+ and Mg^2+-free), and then adding the TripleExpress™ reagent. Harvested cells are spun down, washed twice in Ca^2+- and Mg^2+-free Hank's Balanced Salt Solution with 20 mM HEPES and 10 mM glucose, pH 7.4 (HHnoCa solution), and counted with viability assessed using Trypan Blue. Cells are loaded with fluo-8 Ca^2+-sensitive dye in HHnoCa solution according to the manufacturer's directions (AAT Bioquest, Sunnyvale, Calif.), incubating at 37° C. for 20 minutes followed by 25 minutes at 22-25° C. After a wash in HHnoCa to remove extracellular dye, cells are resuspended in HHnoCa and plated at […] cells per well in a volume of 25 μl/well in 384 well black-wall, clear bottom plates (Hamamatsu, Middlesex, N.J.). Plates are then centrifuged to create a monolayer in the wells and stored in the dark until used.
# Prior to analysis, compound plates are prepared with each compound at 6× the final desired concentration. From stock solutions at 10 mM in 100% DMSO, compounds are spotted in the desired amounts using an ECHO liquid handler (Labcyte, Sunnyvale, Calif.) into wells of a 384-well plate and then diluted with 50 μl of HHnoCa containing 750 nM Ro 25-6981 and 120 μM 5,7-dichlorokynurenic acid (both purchased from Tocris Bioscience (Bristol, England) and maintained as 10 mM stock solutions in 100% DMSO). To insure complete compound dissolution, these plates are then placed in an orbital shaker for at least one hour. Also prepared prior to the assay is a co-agonist plate containing HHnoCa with 240 μM glutamate, 2.4 mM glycine, and 7.2 mM CaCl2, which is 2.4× the desired final concentration of each reagent. Both the compound plate and co-agonist plate are 384-well polypropylene plates from Thermo Fisher Scientific, Waltham, Mass.
# The assay is performed by first adding 10 μl solution from each well of the compound plate described above to the cell plate using a CyBiWell liquid handler (Analytik Jena AG, Jena, Germany), followed by 10 minutes pre-incubation in the dark. Cell plates are then loaded onto a Hamamatsu FDSS 6000 plate reader. After a 30-second baseline, 25 μl is added to each well from the co-agonist plate, and the fluorescence signal is recorded for another 2 minutes. FDSS software applies shading and autofluorescence correction, and resultant raw fluorescence measurements are exported in the form of a fluorescence ratio for each well to its own reading at time zero in the experiment. In each plate, negative control wells consist of wells where Ro 25-6981 and 5,7 dichlorokynurenic acid are present and co-agonist is applied in the absence of any added assay compound. Under these conditions, the Ca^2+ response to co-agonist is suppressed. Positive control wells also present in each plate contain 5,7 dichlorokynurenic acid but no Ro 25-6981, so that co-agonist addition results in a large Ca^2+ response. Compounds tested are evaluated on the basis of their ability to reverse the suppression of the Ca^2+ response mediated by Ro 25-6981, which is quantified as % reversal=100*(R−Rneg)/(Rpos−Rneg) where R is the fluorescence ratio for the test compound at the end of the experiment and Rneg and Rpos are the end ratios for the negative and positive controls, respectively. […]
# T1 sequence (Q13224 27-1484, other chains not shown): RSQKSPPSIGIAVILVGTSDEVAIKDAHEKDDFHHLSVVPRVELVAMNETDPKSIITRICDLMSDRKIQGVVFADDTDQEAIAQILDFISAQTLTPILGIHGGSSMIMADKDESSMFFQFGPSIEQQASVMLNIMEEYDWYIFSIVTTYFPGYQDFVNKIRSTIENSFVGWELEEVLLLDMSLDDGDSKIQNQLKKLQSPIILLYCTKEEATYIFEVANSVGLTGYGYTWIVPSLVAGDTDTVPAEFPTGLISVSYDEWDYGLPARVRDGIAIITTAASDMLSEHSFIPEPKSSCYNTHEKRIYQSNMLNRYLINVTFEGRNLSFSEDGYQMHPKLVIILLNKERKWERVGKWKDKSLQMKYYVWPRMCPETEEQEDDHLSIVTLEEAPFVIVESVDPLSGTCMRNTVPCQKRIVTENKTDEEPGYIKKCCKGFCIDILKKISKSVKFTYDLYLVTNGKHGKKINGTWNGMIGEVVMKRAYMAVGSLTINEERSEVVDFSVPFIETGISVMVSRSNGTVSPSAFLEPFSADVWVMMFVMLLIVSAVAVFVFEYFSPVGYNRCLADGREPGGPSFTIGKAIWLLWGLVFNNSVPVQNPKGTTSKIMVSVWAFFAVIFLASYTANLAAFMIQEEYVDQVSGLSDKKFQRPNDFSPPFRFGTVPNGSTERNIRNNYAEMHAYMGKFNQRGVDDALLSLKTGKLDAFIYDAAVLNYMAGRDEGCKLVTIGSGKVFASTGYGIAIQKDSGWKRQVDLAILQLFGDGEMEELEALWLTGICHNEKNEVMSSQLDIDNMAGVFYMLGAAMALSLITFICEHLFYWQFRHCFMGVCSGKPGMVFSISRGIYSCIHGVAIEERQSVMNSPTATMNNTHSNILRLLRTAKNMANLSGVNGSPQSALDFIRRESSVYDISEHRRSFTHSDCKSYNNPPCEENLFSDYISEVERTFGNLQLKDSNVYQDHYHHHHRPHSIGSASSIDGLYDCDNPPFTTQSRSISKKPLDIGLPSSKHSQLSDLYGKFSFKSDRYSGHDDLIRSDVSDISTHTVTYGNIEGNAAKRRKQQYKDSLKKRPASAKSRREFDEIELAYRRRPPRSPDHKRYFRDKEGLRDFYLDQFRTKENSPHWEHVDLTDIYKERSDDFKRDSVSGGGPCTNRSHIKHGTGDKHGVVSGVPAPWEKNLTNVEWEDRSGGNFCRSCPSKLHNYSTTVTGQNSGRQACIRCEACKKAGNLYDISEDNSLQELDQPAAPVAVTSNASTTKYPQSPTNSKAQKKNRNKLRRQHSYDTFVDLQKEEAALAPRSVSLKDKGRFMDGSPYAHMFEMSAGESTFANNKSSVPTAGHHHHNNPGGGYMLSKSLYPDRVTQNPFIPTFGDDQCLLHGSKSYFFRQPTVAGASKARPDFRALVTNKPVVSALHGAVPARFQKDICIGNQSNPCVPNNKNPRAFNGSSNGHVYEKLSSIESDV
row,SMILES,Response Recovered (%)
1,"N#Cc1ccc(-c2csc3ncn(CC(=O)N4CCCC4)c(=O)c23)cc1 [Example 32, 4-{4-oxo-3-[2-oxo-2-(pyrrolidin-1-yl)ethyl]-3H,4H-thieno[2,3-d]pyrimidin-5-yl}benzonitrile]",2
2,"Cn1nccc1-c1csc2ncn(CC(=O)N3CCCC3)c(=O)c12 [Example 33, 5-(1-methyl-1H-pyrazol-5-yl)-3-[2-oxo-2-(pyrrolidin-1-yl)ethyl]-3H,4H-thieno[2,3-d]pyrimidin-4-one]",1
3,"O=C(Cn1cnc2scc(-c3ccc(OC(F)(F)F)cc3)c2c1=O)N1CCCC1 [Example 34, 3-[2-oxo-2-(pyrrolidin-1-yl)ethyl]-5-[4-(trifluoromethoxy)phenyl]-3H,4H-thieno[2,3-d]pyrimidin-4-one]",16
4,"CC(C)(C)c1ccc(-c2csc3ncn(CC(=O)N4CCCC4)c(=O)c23)cc1 [Example 35, 5-(4-tert-butylphenyl)-3-[2-oxo-2-(pyrrolidin-1-yl)ethyl]-3H,4H-thieno[2,3-d]pyrimidin-4-one]",14
5,"COc1ccc(-c2csc3ncn(CC(=O)N4CCCC4)c(=O)c23)cn1 [Example 36, 5-(6-methoxypyridin-3-yl)-3-[2-oxo-2-(pyrrolidin-1-yl)ethyl]-3H,4H-thieno[2,3-d]pyrimidin-4-one]",2
6,"O=C(Cn1cnc2scc(-c3ccc(Cl)c(Cl)c3)c2c1=O)N1CCCC1 [Example 37, 5-(3,4-dichlorophenyl)-3-[2-oxo-2-(pyrrolidin-1-yl)ethyl]-3H,4H-thieno[2,3-d]pyrimidin-4-one]",61
7,O=C(Cn1cnc2scc(-c3ccc(C(F)(F)F)cc3F)c2c1=O)N1CCCC1 [Example 38],10
8,"O=C(Cn1cnc2scc(-c3cncc(F)c3)c2c1=O)N1CCCC1 [Example 39, 5-(5-fluoropyridin-3-yl)-3-[2-oxo-2-(pyrrolidin-1-yl)ethyl]-3H,4H-thieno└2,3-d┘pyrimidin-4-one]",3
9,"O=C(Cn1cnc2scc(-c3cncnc3)c2c1=O)N1CCCC1 [Example 40, 3-[2-oxo-2-(pyrrolidin-1-yl)ethyl]-5-(pyrimidin-5-yl)-3H,4H-thieno[2,3-d]pyrimidin-4-one]",1
10,"COc1ccc(-c2csc3ncn(CC(=O)N4CCCC4)c(=O)c23)cc1 [Example 41, 5-(4-methoxyphenyl)-3-[2-oxo-2-(pyrrolidin-1-yl)ethyl]-3H,4H-thieno[2,3-d]pyrimidin-4-one]",5
11,"O=C(Cn1cnc2scc(-c3ccc(F)c(F)c3)c2c1=O)N1CCCC1 [Example 42, 5-(3,4-difluorophenyl)-3-[2-oxo-2-(pyrrolidin-1-yl)ethyl]-3H,4H-thieno[2,3-d]pyrimidin-4-one]",3
12,"O=C(Cn1cnc2scc(-c3ccc(C(F)(F)F)cc3Cl)c2c1=O)N1CCCC1 [Example 43, 5-[2-chloro-4-(trifluoromethyl)phenyl]-3-[2-oxo-2-(pyrrolidin-1-yl)ethyl]-3H,4H-thieno[2,3-d]pyrimidin-4-one]",8
13,"COc1ccc(C(F)(F)F)cc1-c1csc2ncn(CC(=O)N3CCCC3)c(=O)c12 [Example 44, 5-[2-methoxy-5-(trifluoromethyl)phenyl]-3-[2-oxo-2-(pyrrolidin-1-yl)ethyl]-3H,4H-thieno[2,3-d]pyrimidin-4-one]",4
14,"O=C(Cn1cnc2scc(-c3cccc(Cl)c3Cl)c2c1=O)N1CCCC1 [Example 45, 5-(2,3-dichlorophenyl)-3-[2-oxo-2-(pyrrolidin-1-yl)ethyl]-3H,4H-thieno[2,3-d]pyrimidin-4-one]",7
15,"O=C(Cn1cnc2scc(-c3ccnc(C(F)(F)F)c3)c2c1=O)N1CCCC1 [Example 46, 3-[2-oxo-2-(pyrrolidin-1-yl)ethyl]-5-[2-(trifluoromethyl)pyridin-4-yl]-3H,4H-thieno[2,3-d]pyrimidin-4-one]",−1
16,"O=C(Cn1cnc2scc(-c3ccc(F)c(C(F)(F)F)c3)c2c1=O)N1CCCC1 [Example 47, 5-[4-fluoro-3-(trifluoromethyl)phenyl]-3-[2-oxo-2-(pyrrolidin-1-yl)ethyl]-3H,4H-thieno[2,3-d]pyrimidin-4-one]",43
17,"O=C(Cn1cnc2scc(-c3cc(C(F)(F)F)cc(C(F)(F)F)c3)c2c1=O)N1CCCC1 [Example 48, 5-[3,5-bis(trifluoromethyl)phenyl]-3-[2-oxo-2-(pyrrolidin-1-yl)ethyl]-3H,4H-thieno[2,3-d]pyrimidin-4-one]",−1
18,"CN(C)c1ccc(-c2csc3ncn(CC(=O)N4CCCC4)c(=O)c23)cc1 [Example 49, 5-[4-(dimethylamino)phenyl]-3-[2-oxo-2-(pyrrolidin-1-yl)ethyl]-3H,4H-thieno[2,3-d]pyrimidin-4-one]",0
19,Cc1cc(C(F)(F)F)ccc1-c1csc2ncn(CC(=O)N3CCCC3)c(=O)c12 [Example 50],9
20,"O=C(Cn1cnc2scc(-c3cccc(OC(F)(F)F)c3)c2c1=O)N1CCCC1 [Example 51, 3-[2-oxo-2-(pyrrolidin-1-yl)ethyl]-5-[3-(trifluoromethoxy)phenyl]-3H,4H-thieno└2,3-d┘pyrimidin-4-one]",27
21,"O=C(Cn1cnc2scc(-c3ccccc3Cl)c2c1=O)N1CCCC1 [Example 52, 5-(2-chlorophenyl)-3-[2-oxo-2-(pyrrolidin-1-yl)ethyl]-3H,4H-thieno[2,3-d]pyrimidin-4-one]",4
22,"O=C(Cn1cnc2scc(-c3ccc(F)cc3Cl)c2c1=O)N1CCCC1 [Example 53, 5-(2-chloro-4-fluorophenyl)-3-[2-oxo-2-(pyrrolidin-1-yl)ethyl]-3H,4H-thieno└2,3-d┘pyrimidin-4-one]",5
23,"O=C(Cn1cnc2scc(-c3cc(C(F)(F)F)ccc3F)c2c1=O)N1CCCC1 [Example 54, 5-[2-fluoro-5-(trifluoromethyl)phenyl]-3-[2-oxo-2-(pyrrolidin-1-yl)ethyl]-3H,4H-thieno[2,3-d]pyrimidin-4-one]",20
24,"O=C(Cn1cnc2scc(-c3cccc(C(F)(F)F)c3)c2c1=O)N1CCCC1 [Example 55, 3-[2-oxo-2-(pyrrolidin-1-yl)ethyl]-5-[3-(trifluoromethyl)phenyl]-3H,4H-thieno[2,3-d]pyrimidin-4-one]",33
25,"CC(C(=O)N1CCCC1)n1cnc2scc(-c3ccc(Cl)c(C(F)(F)F)c3)c2c1=O (centres unmarked) [Example 56, 5-[4-chloro-3-(trifluoromethyl)phenyl]-3-[1-oxo-1-(pyrrolidin-1-yl)propan-2-yl]-3H,4H-thieno[2,3-d]pyrimidin-4-one]",0
26,"CC(C(=O)N1CCCC1)n1cnc2scc(-c3ccc(F)c(Cl)c3)c2c1=O (centres unmarked) [Example 57, 5-(3-chloro-4-fluorophenyl)-3-[1-oxo-1-(pyrrolidin-1-yl)propan-2-yl]-3H,4H-thieno[2,3-d]pyrimidin-4-one]",3
